In BindingDB's records for doi:10.1016/0028-3908(94)90059-0 (University of Alberta, 1994) one finds Ki data, which are given here for 23 compounds.

Where “and” joins values, the source holds several entries; their conditions need not be identical. Equal entries are not always repeated.

What is called Ki is the equilibrium dissociation constant of an inhibitor or competing ligand from its target.

In assay [1] the target is 5-hydroxytryptamine receptor 1B (Homo sapiens, UniProt P28222).
Assay [2] concerns the target 5-hydroxytryptamine receptor 1D (Homo sapiens, UniProt P28221).
Assay [3] addresses 5-hydroxytryptamine receptor 1B (Rattus norvegicus, UniProt P28564).
Assay [4] deals with T1, 5-hydroxytryptamine receptor 1F (Homo sapiens, UniProt P30939).
T1 sequence (P30939 whole entry): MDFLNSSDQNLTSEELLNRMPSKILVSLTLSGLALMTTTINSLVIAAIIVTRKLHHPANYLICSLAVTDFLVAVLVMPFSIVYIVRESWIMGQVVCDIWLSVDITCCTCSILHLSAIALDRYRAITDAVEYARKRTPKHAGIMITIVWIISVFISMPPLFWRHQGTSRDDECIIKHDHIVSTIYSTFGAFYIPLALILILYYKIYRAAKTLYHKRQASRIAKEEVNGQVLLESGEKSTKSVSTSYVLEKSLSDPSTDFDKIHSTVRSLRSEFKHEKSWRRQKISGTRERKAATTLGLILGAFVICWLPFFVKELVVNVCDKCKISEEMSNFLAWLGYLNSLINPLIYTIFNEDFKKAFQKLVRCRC

The target of assay [5] is 5-hydroxytryptamine receptor 2B (Rattus norvegicus, UniProt P30994).
Chain of 5-hydroxytryptamine receptor 2B (Rattus norvegicus, UniProt P30994) (P30994 whole entry): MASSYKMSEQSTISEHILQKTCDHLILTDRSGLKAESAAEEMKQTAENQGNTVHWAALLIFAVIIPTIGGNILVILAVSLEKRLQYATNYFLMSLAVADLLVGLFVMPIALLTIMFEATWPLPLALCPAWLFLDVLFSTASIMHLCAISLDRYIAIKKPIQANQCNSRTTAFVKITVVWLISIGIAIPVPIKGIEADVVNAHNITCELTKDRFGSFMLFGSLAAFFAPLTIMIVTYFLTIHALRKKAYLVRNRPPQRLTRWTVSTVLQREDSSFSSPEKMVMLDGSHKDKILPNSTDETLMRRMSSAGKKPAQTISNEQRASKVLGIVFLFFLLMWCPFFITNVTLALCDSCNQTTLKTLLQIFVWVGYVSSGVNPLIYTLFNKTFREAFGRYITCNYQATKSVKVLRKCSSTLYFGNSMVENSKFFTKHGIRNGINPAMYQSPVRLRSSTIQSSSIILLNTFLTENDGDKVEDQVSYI
The target of assay [6] is T2, 5-hydroxytryptamine receptor 2C (Rattus norvegicus, UniProt P08909).
T2 sequence (P08909 whole entry): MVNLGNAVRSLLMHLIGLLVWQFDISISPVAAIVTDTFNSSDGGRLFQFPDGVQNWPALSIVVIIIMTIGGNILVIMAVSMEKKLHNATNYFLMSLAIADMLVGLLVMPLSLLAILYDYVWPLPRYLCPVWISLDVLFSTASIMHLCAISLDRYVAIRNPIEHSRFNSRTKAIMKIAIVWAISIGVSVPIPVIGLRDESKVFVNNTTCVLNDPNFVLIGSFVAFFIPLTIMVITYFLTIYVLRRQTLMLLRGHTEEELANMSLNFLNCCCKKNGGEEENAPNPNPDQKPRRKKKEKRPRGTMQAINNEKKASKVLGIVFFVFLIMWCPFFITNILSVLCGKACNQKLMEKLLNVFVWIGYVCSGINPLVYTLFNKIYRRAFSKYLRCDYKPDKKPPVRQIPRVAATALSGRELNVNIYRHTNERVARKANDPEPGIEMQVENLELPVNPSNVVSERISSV

Assay [7] deals with 5-hydroxytryptamine receptor 2B (Mus musculus, UniProt Q02152).
Chain of 5-hydroxytryptamine receptor 2B (Mus musculus, UniProt Q02152) (Q02152 whole entry): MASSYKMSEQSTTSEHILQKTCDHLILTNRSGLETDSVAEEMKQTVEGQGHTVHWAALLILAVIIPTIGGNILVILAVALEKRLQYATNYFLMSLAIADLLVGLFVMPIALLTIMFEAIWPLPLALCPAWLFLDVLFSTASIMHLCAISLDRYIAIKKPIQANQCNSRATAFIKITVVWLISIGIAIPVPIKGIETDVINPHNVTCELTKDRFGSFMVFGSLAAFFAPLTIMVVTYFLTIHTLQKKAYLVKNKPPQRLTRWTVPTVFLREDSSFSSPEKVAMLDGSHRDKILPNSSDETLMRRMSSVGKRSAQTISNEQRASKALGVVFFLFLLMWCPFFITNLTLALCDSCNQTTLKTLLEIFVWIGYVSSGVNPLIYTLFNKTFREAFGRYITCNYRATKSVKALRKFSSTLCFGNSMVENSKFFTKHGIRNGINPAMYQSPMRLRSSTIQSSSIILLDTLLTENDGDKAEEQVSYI
The target in assay [8] is T3, 5-hydroxytryptamine receptor 3A (Mus musculus, UniProt P23979).
T3 sequence (P23979 whole entry): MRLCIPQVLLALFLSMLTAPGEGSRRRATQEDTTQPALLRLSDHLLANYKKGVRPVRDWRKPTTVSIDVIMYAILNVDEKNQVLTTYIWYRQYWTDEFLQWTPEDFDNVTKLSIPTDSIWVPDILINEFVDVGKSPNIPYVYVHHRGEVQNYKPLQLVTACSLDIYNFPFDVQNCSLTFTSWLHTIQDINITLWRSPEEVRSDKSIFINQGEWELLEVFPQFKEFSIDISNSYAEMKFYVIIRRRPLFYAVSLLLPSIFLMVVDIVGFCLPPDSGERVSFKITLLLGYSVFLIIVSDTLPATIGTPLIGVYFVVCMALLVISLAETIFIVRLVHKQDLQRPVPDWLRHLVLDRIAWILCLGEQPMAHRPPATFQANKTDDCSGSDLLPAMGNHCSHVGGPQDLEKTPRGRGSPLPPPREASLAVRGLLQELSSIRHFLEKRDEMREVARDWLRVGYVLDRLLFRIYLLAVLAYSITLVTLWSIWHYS

The target in assay [9] is 5-hydroxytryptamine receptor 1D (Canis lupus familiaris, UniProt P11614).
Chain of 5-hydroxytryptamine receptor 1D (Canis lupus familiaris, UniProt P11614) (P11614 whole entry): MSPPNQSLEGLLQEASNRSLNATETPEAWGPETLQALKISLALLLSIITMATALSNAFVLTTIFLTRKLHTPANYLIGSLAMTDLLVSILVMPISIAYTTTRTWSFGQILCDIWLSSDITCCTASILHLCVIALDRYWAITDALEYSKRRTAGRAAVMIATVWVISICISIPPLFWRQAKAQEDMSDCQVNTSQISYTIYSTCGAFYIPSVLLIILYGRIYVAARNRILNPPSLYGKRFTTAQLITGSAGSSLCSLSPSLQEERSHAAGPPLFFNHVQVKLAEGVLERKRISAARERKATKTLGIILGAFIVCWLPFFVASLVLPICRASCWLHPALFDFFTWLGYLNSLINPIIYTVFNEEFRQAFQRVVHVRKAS
Assay [10] deals with 5-hydroxytryptamine receptor 7 (Mus musculus, UniProt P32304).
Chain of 5-hydroxytryptamine receptor 7 (P32304 whole entry): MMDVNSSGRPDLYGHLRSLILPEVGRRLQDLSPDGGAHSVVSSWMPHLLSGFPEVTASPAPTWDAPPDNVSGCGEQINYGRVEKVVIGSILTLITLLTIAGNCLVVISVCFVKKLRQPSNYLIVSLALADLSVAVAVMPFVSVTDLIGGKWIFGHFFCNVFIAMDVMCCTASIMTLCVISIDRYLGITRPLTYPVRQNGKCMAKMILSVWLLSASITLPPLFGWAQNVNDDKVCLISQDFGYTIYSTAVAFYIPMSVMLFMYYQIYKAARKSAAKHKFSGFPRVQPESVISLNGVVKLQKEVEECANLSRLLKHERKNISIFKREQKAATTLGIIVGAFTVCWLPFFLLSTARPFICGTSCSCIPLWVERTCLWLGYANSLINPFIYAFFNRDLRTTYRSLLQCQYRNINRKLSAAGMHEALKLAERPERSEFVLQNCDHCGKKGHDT
Assay [11] addresses 5-hydroxytryptamine receptor 1D (Rattus norvegicus, UniProt P28565).
Assay [12] deals with 5-hydroxytryptamine receptor 4 (Cavia porcellus, UniProt O70528).
Chain of 5-hydroxytryptamine receptor 4 (O70528 whole entry): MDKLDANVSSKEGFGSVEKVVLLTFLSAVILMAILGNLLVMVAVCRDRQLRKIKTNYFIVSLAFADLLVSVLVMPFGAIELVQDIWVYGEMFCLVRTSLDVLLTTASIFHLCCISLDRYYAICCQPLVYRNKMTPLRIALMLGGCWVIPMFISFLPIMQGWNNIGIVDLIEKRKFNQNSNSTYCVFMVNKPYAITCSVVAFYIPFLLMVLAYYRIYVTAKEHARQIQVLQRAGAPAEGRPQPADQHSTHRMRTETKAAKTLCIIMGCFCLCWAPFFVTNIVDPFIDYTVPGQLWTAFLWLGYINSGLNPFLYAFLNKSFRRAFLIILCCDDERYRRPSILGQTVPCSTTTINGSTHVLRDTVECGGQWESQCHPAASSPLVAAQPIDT
Assay [13] addresses 5-hydroxytryptamine receptor 5A (Rattus norvegicus, UniProt P35364).
In assay [14] the target is 5-hydroxytryptamine receptor 1B (Mus musculus, UniProt P28334).
Chain of 5-hydroxytryptamine receptor 1B (Mus musculus, UniProt P28334) (P28334 whole entry): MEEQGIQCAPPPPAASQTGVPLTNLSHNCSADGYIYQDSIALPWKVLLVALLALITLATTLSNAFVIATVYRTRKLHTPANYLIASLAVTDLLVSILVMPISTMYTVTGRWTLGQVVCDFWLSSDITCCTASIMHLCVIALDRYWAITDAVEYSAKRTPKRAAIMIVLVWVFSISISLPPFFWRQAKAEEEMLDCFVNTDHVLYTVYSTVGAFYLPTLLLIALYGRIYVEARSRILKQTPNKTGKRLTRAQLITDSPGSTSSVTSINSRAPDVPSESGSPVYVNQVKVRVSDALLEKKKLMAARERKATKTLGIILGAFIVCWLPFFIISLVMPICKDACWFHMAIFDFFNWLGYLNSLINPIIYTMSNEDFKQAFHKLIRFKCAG
The target of assay [15] is T4, 5-hydroxytryptamine receptor 1F (Rattus norvegicus, UniProt P30940).
T4 sequence (P30940 whole entry): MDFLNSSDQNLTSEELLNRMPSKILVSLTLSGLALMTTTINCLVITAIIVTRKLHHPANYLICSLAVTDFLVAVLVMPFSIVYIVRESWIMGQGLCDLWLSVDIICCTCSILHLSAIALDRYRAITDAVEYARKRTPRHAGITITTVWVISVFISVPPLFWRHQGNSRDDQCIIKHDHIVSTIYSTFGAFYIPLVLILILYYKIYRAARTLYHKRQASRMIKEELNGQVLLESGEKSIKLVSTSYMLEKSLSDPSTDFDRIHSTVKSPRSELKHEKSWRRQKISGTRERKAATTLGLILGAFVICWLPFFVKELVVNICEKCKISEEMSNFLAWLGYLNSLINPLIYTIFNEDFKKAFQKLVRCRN

Assay [16] has as its target T5, 5-hydroxytryptamine receptor 1F (Mus musculus, UniProt Q02284).
T5 sequence (Q02284 whole entry): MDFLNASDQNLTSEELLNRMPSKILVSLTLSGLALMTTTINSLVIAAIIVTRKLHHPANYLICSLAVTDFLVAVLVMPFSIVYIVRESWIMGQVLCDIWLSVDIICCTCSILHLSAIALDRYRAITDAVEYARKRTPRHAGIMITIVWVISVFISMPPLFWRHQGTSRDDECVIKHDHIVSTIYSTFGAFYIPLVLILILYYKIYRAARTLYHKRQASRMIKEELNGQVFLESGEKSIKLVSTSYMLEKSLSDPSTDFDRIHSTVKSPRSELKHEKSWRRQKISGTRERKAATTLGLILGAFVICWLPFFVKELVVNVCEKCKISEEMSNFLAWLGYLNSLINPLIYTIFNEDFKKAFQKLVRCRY

In assay [17] the target is 5-hydroxytryptamine receptor 5A (Mus musculus, UniProt P30966).
Chain of 5-hydroxytryptamine receptor 5A (Mus musculus, UniProt P30966) (P30966 whole entry): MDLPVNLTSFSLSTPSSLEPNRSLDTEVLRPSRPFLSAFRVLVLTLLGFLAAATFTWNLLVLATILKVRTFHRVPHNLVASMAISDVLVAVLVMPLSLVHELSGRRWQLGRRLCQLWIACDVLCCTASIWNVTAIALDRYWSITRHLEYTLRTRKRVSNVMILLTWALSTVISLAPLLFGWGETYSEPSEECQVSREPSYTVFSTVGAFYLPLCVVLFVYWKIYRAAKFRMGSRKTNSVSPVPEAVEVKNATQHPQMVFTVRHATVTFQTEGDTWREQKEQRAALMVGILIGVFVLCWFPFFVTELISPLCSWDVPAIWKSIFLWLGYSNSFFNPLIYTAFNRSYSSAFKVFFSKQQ
Assay [18] has as its target 5-hydroxytryptamine receptor 1E (Homo sapiens, UniProt P28566).

Chain of 5-hydroxytryptamine receptor 1D (Homo sapiens, UniProt P28221) (P28221 whole entry): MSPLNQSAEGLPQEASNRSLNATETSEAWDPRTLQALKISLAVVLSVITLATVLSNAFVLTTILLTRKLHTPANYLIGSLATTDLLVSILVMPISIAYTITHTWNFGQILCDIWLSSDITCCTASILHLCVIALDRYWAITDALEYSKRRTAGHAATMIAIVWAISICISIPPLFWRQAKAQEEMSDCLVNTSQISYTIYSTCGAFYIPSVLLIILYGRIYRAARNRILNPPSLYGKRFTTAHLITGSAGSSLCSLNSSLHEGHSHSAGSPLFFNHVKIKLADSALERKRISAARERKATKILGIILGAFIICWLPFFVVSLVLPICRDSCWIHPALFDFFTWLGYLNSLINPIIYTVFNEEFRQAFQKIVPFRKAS
Chain of 5-hydroxytryptamine receptor 1E (P28566 whole entry): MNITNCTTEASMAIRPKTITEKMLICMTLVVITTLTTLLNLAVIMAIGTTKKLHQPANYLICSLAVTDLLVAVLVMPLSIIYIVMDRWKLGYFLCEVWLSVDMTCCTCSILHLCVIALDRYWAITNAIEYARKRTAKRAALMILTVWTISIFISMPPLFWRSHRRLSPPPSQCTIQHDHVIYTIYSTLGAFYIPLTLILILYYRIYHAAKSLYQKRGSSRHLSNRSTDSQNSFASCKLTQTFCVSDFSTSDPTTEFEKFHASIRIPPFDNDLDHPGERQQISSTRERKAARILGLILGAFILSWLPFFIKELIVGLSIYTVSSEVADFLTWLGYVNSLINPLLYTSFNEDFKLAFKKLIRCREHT
Chain of 5-hydroxytryptamine receptor 1D (Rattus norvegicus, UniProt P28565) (P28565 whole entry): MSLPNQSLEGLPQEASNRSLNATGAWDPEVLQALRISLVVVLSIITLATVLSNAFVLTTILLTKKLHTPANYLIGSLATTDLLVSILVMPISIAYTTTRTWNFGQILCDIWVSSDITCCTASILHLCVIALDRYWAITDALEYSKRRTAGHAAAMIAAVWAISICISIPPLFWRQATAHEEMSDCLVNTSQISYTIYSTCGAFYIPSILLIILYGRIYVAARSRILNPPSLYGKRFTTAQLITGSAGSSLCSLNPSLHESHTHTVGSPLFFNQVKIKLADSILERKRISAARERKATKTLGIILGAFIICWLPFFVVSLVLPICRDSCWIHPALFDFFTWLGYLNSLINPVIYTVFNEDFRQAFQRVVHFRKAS
Chain of 5-hydroxytryptamine receptor 1B (Rattus norvegicus, UniProt P28564) (P28564 whole entry): as the sequence (P28334 whole entry) above, with A15T, T23A, G33D, E152D, M192V, A270V, D272E, A385T counted along it
Chain of 5-hydroxytryptamine receptor 1B (Homo sapiens, UniProt P28222) (P28222 whole entry): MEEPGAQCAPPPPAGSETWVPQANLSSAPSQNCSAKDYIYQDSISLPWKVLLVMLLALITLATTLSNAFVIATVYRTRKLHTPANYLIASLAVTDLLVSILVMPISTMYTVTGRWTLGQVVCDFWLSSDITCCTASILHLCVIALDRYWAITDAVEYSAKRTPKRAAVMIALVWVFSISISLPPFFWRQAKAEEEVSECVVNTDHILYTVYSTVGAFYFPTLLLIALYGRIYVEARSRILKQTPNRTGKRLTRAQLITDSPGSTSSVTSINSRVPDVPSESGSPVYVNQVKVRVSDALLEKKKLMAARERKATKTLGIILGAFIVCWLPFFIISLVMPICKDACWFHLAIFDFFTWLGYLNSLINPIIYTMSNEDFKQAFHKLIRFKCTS

As to `c1ccc2c(N3CCNCC3)cccc2c1`, the Ki in assay [1] is 0.012 µM; in assay [2] it was 0.00741 µM; in assay [3], 0.0398 µM; in assay [4] it was 0.0537 µM.

`O=C(c1ccc(F)cc1)C1CCN(CCn2c(=O)[nH]c3ccccc3c2=O)CC1` [3-(2-{4-[(4-fluorophenyl)carbonyl]piperidin-1-yl}ethyl)-1,2,3,4-tetrahydroquinazoline-2,4-dione]: the Ki was 3.55 µM in assay [5]; 0.0479 µM and 0.0209 µM in [6]; 0.204 µM in assay [7]; 0.00125 µM in assay [4].

As to `COc1cc2c3cc1Oc1cc(ccc1O)C[C@@H]1c4c(cc(OC)c(O)c4Oc4ccc(cc4)C[C@@H]3N(C)CC2)CC[N+]1(C)C` [Tubocurarine,d], the Ki in assay [8] came out at 0.0087 µM.

As for `O=C(CCCN1CCC2(CC1)C(=O)NCN2c1ccccc1)c1ccc(F)cc1` [8-[4-(4-fluorophenyl)-4-oxidanylidene-butyl]-1-phenyl-1,3,8-triazaspiro[4.5]decan-4-one], the Ki in [9] came to 1 µM; in assay [10] it was 0.0631 µM; in assay [11] it was 0.0616 µM; in assay [7], 0.0501 µM; in assay [4], 0.00398 µM.

As to `Clc1cncc(N2CCNCC2)n1` [L-630,571], the affinity in assay [6] corresponds to a Ki of 0.339 µM.

In the case of `CN1C2CCC1CC(OC(=O)c1c[nH]c3ccccc13)C2` (stereo not given), in assay [8], the Ki was 0.00199 µM.

On to `CC(C)n1c(=O)n(C(=O)NC2CC3CCC(C2)N3C)c2ccccc21` (stereo not given) [BIMU 8], for which the Ki in assay [12] was 0.0251 µM and 0.0126 µM.

Regarding `NCCc1c[nH]c2ccc(O)cc12` [[3H]-5-HT], the inhibition constant (Ki) was determined as 0.24 µM in assay [13]; 0.0398 µM in [14]; 0.0158 µM in [9]; 0.00501 µM in [10]; 0.0676 µM in assay [15]; 0.126 µM in [16].

For the compound `CCCN(CCC)C1CCc2cccc(O)c2C1` (stereo not given), the results for the Ki in assay [17] and in assay [10] were 1.58 µM and 0.251 µM, respectively.

As for `Cc1[nH]c2ccc(O)cc2c1CCN`, the Ki is 0.851 µM and 0.513 µM in assay [1]; 0.316 µM in assay [5]; 6.61 µM in assay [7].

Consider `CC(C)(C)[C@]1(O)CCN2C[C@H]3c4ccccc4CCc4cccc(c43)[C@@H]2C1`, for which the Ki in assay [10] came to 0.0316 µM; in [4], 3.89 µM.

Turning to `COc1cc(CC(C)N)c(OC)cc1I` (stereo not given) [[125I]2,5-dimethoxy-4-iodoamphetamine], the Ki in assay [5] is 0.0275 µM; in assay [4], 2.51 µM.

`CN1C2CCC1CC(OC(=O)c1cc(Cl)cc(Cl)c1)C2` (stereo not given) [MDL 72222] came in with a Ki in assay [8] of 0.0871 µM.

Regarding `COc1cc(N)c(Cl)cc1C(=O)N[C@H]1CN2CCC1CC2` [4-Amino-N-(R)-1-aza-bicyclo[2.2.2]oct-3-yl-5-chloro-2-methoxy-benzamide], the Ki in assay [12] is 0.251 µM and 0.2 µM.

In the case of `CSc1ccc2c(c1)C(N1CCN(C)CC1)Cc1ccccc1S2` (stereo not given) [methanesulfonic acid;1-methyl-4-(3-methylsulfanyl-5,6-dihydrobenzo[b][1]benzothiepin-5-yl)piperazine], the Ki in [17] was 0.126 µM; in [15] it was 1 µM; in [3] it was 0.0129 µM and 0.0105 µM; in [11] it was 0.00058 µM; in [18], 0.209 µM and 0.12 µM.

For `CN1CCN2c3ccccc3Cc3ccccc3[C@H]2C1` [MIANSERIN (+)], the Ki in assay [10] was determined as 0.1 µM; in assay [16], 0.1 µM; in assay [11] it was 0.0302 µM; in [4] it was 0.0126 µM.

For the compound `COC(=O)[C@@H]1[C@H]2C[C@H]3c4[nH]c5ccccc5c4CCN3C[C@@H]2CC[C@@H]1O` [yohimbic acid methyl ester], the Ki was greater than 10 µM in [14]; 0.0158 µM and 0.0479 µM in assay [2]; 0.0589 µM and 0.0355 µM and 0.107 µM and 0.0537 µM in assay [5]; 0.00524 µM in assay [9]; 0.562 µM in [15]; 0.0631 µM in [16]. The compound also showed a Ki in assay [11] of 0.0309 µM.

`NCCc1c[nH]c2ccccc12` [1H-indole-3-ethanamine]: the Ki in assay [5] and in assay [7] was 0.2 µM throughout.

In the case of `NCCc1c[nH]c2ccc(C(N)=O)cc12` [[3H]-5-carboxamidotryptamine], the Ki in assay [13] is 0.0126 µM; in assay [14], 0.01 µM; in assay [12], greater than 10 µM; in assay [17], 0.0158 µM and 0.0126 µM; in assay [5], 0.151 µM; in assay [10], 0.001 µM. Further, the Ki was 2.45 µM in [15]; 3.16 µM in assay [16]; 0.00037 µM in [11]; 7.08 µM and 3.31 µM in assay [18].

For `c1ccc2nc(N3CCNCC3)ccc2c1` [2-Piperazin-1-yl-quinoline (Quipazine)], the Ki in assay [6] amounted to 0.257 µM; in [7], 6.61 µM.

`CN1C[C@H](CNC(=O)OCc2ccccc2)C[C@@H]2c3cccc4c3c(cn4C)C[C@H]21` [METERGOLINE]: the Ki was 0.00524 µM and 0.0363 µM in assay [1]; 0.0006 µM in [2]; 0.0316 µM in [10]; 0.513 µM in assay [15]; 0.00077 µM in assay [11]; 1.12 µM and 0.776 µM in [18].

Consider `CCCN(CCC)CCc1c[nH]c2ccc(C(N)=O)cc12` [NN-DIPROP-5-CT], for which the Ki in assay [1] was found to be 0.0417 µM; in assay [2], 0.0129 µM.

As to `CNS(=O)(=O)Cc1ccc2[nH]cc(CCN(C)C)c2c1` [Sumax], the Ki in [17] was greater than 10 µM; in [16], 0.0794 µM; in assay [18], 2.34 µM and 2.09 µM.
